From patent US6962894B1, “Herbicidal composition” (Syngenta Crop Protection, Inc., priority 1999, dated 2005)

Tests used:
Test in all cases: Post-emergence greenhouse pot test, herbicide alone and with safener
Format in all cases: in vivo
[1] = tested on: summer wheat
Experimental: (§1) The test plants are grown in pots under greenhouse conditions until a post-application stage. A standard soil is used as the cultivation substrate. At a post-emergence stage, the herbicides, both alone and in admixture with safeners, are applied to the test plants or to cultivated plants of which the seeds were dressed with safeners. Application is carried out using an emulsion prepared from a 25% emulsifiable concentrate (Example F1, b)) of the test substances using 500 l of water/ha. The rates of application are matched to the optimum dosages determined under field or greenhouse conditions. Evaluation of the tests is carried out after 9, 10, 20 and 24 days (100% action=complete destruction; 0% action=no phytotoxic action).

[2] = tested on: winter barley; conditions: 10 days after application
Experimental: as §1

[3] = tested on: winter wheat; conditions: 10 days after application
Experimental: as §1

[4] = tested on: Agrostis spica-venti; conditions: 10 days after application
Experimental: as §1

[5] = tested on: Lolium rigidum
Experimental: as §1

[6] = tested on: hard wheat
Experimental: as §1

[7] = tested on: Alopecurus myosuroides; conditions: 10 days after application
Experimental: as §1

[8] = 9 days after application, herbicide alone 60 g a.i./ha
[9] = 9 days after application, herbicide alone 125 g a.i./ha
[10] = 9 days after application, herbicide alone 250 g a.i./ha
[11] = 20 days after application, herbicide alone 60 g a.i./ha
[12] = 20 days after application, herbicide alone 125 g a.i./ha
[13] = 20 days after application, herbicide alone 250 g a.i./ha

Structure (SMILES): CCc1cc(C)cc(CC)c1C1C(=O)N2CCOCCN2C1=O [herbicide no. I1, 8-(2,6-diethyl-4-methylphenyl)tetrahydropyrazolo[1,2-d][1,4,5]-oxadiazepine-7,9-dione]
- action (100% = complete destruction; 0% = no phytotoxic action) [1, 8]: 60%
- action (100% = complete destruction; 0% = no phytotoxic action) [1, 9]: 60%
- action (100% = complete destruction; 0% = no phytotoxic action) [1, 10]: 60%
- action (100% = complete destruction; 0% = no phytotoxic action) [1, 11]: 20%
- action (100% = complete destruction; 0% = no phytotoxic action) [1, 12]: 40%
- action (100% = complete destruction; 0% = no phytotoxic action) [1, 13]: 50%
- action (100% = complete destruction; 0% = no phytotoxic action) ([2]; herbicide alone 15 g a.i./ha): 0%
- action (100% = complete destruction; 0% = no phytotoxic action) ([2]; herbicide alone 30 g a.i./ha): 0%
- action (100% = complete destruction; 0% = no phytotoxic action) ([2]; herbicide alone 60 g a.i./ha): 0%
- action (100% = complete destruction; 0% = no phytotoxic action) ([2]; herbicide alone 125 g a.i./ha): 0%
- action (100% = complete destruction; 0% = no phytotoxic action) ([3]; herbicide alone 15 g a.i./ha): 0%
- action (100% = complete destruction; 0% = no phytotoxic action) ([3]; herbicide alone 30 g a.i./ha): 5%
- action (100% = complete destruction; 0% = no phytotoxic action) ([3]; herbicide alone 60 g a.i./ha): 10%
- action (100% = complete destruction; 0% = no phytotoxic action) ([3]; herbicide alone 125 g a.i./ha): 20%
- action (100% = complete destruction; 0% = no phytotoxic action) ([4]; herbicide alone 15 g a.i./ha): 70%
- action (100% = complete destruction; 0% = no phytotoxic action) ([4]; herbicide alone 30 g a.i./ha): 70%
- action (100% = complete destruction; 0% = no phytotoxic action) ([4]; herbicide alone 60 g a.i./ha): 80%
- action (100% = complete destruction; 0% = no phytotoxic action) ([4]; herbicide alone 125 g a.i./ha): 80%
- action (100% = complete destruction; 0% = no phytotoxic action) ([5]; 10 days after application, herbicide alone 15 g a.i./ha): 60%
- action (100% = complete destruction; 0% = no phytotoxic action) ([5]; 10 days after application, herbicide alone 30 g a.i./ha): 60%
- action (100% = complete destruction; 0% = no phytotoxic action) ([5]; 10 days after application, herbicide alone 60 g a.i./ha): 60%
- action (100% = complete destruction; 0% = no phytotoxic action) ([5]; 10 days after application, herbicide alone 125 g a.i./ha): 80%
- action (100% = complete destruction; 0% = no phytotoxic action) [5, 11]: 95%
- action (100% = complete destruction; 0% = no phytotoxic action) [5, 12]: 100%
- action (100% = complete destruction; 0% = no phytotoxic action) [5, 13]: 100%
- action (100% = complete destruction; 0% = no phytotoxic action) [6, 8]: 55%
- action (100% = complete destruction; 0% = no phytotoxic action) [6, 9]: 60%
- action (100% = complete destruction; 0% = no phytotoxic action) [6, 10]: 60%
- action (100% = complete destruction; 0% = no phytotoxic action) [6, 11]: 20%
- action (100% = complete destruction; 0% = no phytotoxic action) [6, 12]: 30%
- action (100% = complete destruction; 0% = no phytotoxic action) [6, 13]: 45%
- action (100% = complete destruction; 0% = no phytotoxic action) ([7]; herbicide alone 15 g a.i./ha): 50%
- action (100% = complete destruction; 0% = no phytotoxic action) ([7]; herbicide alone 30 g a.i./ha): 80%
- action (100% = complete destruction; 0% = no phytotoxic action) ([7]; herbicide alone 60 g a.i./ha): 80%
- action (100% = complete destruction; 0% = no phytotoxic action) ([7]; herbicide alone 125 g a.i./ha): 90%
